Test results: patent US12528777B2, “Quinazolinones derivatives for treatment of non-alcoholic fatty liver disease, preparation and use thereof” (Council of Scientific and Industrial Research, priority 2020, dated 2026)
“Also recorded” adds a separate entry of the source.

How the values were obtained:
[1] = Lipophilicity assay (octanol/buffer); format: physicochemical; details: for logD: n-octanol / 10 mM sodium phosphate buffer pH 7.4, LC-UV; for Lipophilicity class from Log D: pH 7.4
Protocol: 1.56 g NaH2PO4·2H2O was dissolved in 0.5 L water in a 1 L beaker. After adjusting pH to 7.4 using NaOH solution, the volume was made up to 1 L. Equal volumes of sodium phosphate buffer (10 mM, pH 7.4) and n-octanol were added to a separation funnel and mixed thoroughly by shaking and inverting the funnel several times. The two layers were allowed to separate for overnight and then dispensed in two separate glass bottles. 10 mM stock solution was prepared in 100% DMSO and stored at 4° C. 495 μL of organic phase (1-octanol) was added to each well of a 2 mL deep well plate, followed by 495 μL of buffer and 10 μL of test compound was added. The plate was incubated for 3 hr at room temperature on a plate shaker at 500 rpm. After incubation, the samples were allowed to equilibrate for 20 min and then centrifuged at 4000 rpm for 30 min for complete phase separation and analysed by LC-UV.
Log D=Log (area of octanol/area of buffer)

[2] = Metabolic stability using Human Liver Microsomes; format: in vitro ADME; details: for % QH (Well stirred model): NADPH, 0-60 min
Protocol: 1 mM stock solution of test compound was prepared in DMSO and diluted with Acetonitrile:Water (1:1) to get a 100 μM working concentration. 100 mL of Milli Q water was added to K2HPO4 (1.398 g) and KH2PO4 (0.27 g) to get final pH 7.4 solution of potassium phosphate buffer. […] The above mixture was pre incubated for 15 minutes at 37° C. After pre incubation, 32.5 μL of the mixture was added to 17.5 μL of buffer, this was incubated for 60 minutes at 37° C. [60 min Without Cofactor (NADPH)]. 16.25 μL of the pre incubated mixture and 8.75 μL of cofactor was added to 150 μL of acetonitrile containing internal standard [0 min Sample]. 62 μL of cofactor was added to remaining pre incubation mixture [Incubation mixture]. 25 μL of incubation mixture at 0, 5, 15, 30, 60 min and 60 min without cofactor were precipitated with 150 μL of acetonitrile containing internal standard, vortexed and centrifuged at 4000 rpm at 4° C. for 20 minutes. 120 μL of supernatant was diluted with 120 μL of water and analyzed by LC-MS/MS [sample preparation].

ATGL = test: Immunoprecipitation assay of ATGL ubiquitination in myc-ATGL HepG2 cells; format: cell-based; details: 5 μM, 24 hours, MG-132, poly ubiquitin smear
Protocol: To this end, an immunoprecipitation assay was performed wherein HepG2 cells overexpressing myc-ATGL were transfected with HA-Ubiquitin and treated with 5 μM of the compounds 9, 10, 107, 215, 219 and 238. MG-132, a proteasomal inhibitor, was added 4 hours before harvesting the cells. Immune complexes were pulled down with anti-myc antibody and immunoblot was done using anti-HA antibody. The resultant smears on the blot reflect the ubiquitination status of ATGL.
For checking the change in the ubiquitination status of ATGL on compound treatment, Myc-ATGL expressing HepG2 cells (ATGL overexpressing cell line) was transfected with 2 μg of a plasmid harboring the HA tagged ubiquitin gene using Lipofectamine 2000 reagent (Invitrogen) in OptiMEM media (HiMedia). Fresh DMEM complete media was added after 8-10 hours of transfection. After roughly 24 hours of transfection, 5 μM of the compounds 9, 10 and 107 was added and cells were harvested post 24 hours of treatment. 4 hours prior to cell harvesting, 10 μM of proteasomal inhibitor MG132 (Calbiochem, Merck Millipore) was added to the cells. Proteins were isolated from the cells and protein concentration was estimated as described previously. 30 μl of PureProteome Protein A/G Mix Magnetic Beads (Merck Millipore) was taken in a 1.5 ml microcentrifuge tube, placed in a Magna Rack (Merck Millipore) and allowed to adhere to the side of the tube. 200 μg of protein was used for immunoprecipitation reaction in a reaction volume of 1 ml. 2 μl of anti-Myc primary antibody (Cell Signaling Technology) was added and the tube was incubated overnight at 4° C. in a rotary shaker. The next day, the tube was placed back in the Magna Rack and the beads were allowed to attach to the tube. To remove non-specific and unattached reactants, 1×PBS and 0.1% Triton-X was used for washing. 2× loading dye and Lysis Buffer was added and heated at 95° C. for 10 minutes to allow the immune complex to dislodge from the magnetic beads. Western Blot was performed subsequently as described before with anti-HA primary antibody for immunoblotting (Cell Signaling Technology). The activity trends of the synthesized compounds are disclosed in Table-5.

Structure (SMILES) | logD [1] | Lipophilicity class from Log D [1] | Clearance class from % QH [2] | % QH (Well stirred model) [2] [%] | ATGL ubiquitination in HepG2 cells (ATGL)
CC(=O)c1cccc(NC(=O)Nc2ccc3ncn(CCCN4CCOCC4)c(=O)c3c2)c1 [Compound 139, 1-(3-acetylphenyl)-3-(3-(3-morpholinopropyl)-4-oxo-3,4-dihydroquinazolin-6-yl)urea] | -0.5 | hydrophilic | medium clearance | 35.3 | –
COCCn1c(C)nc2ccc(NC(=O)Nc3cccc(C(C)=O)c3)cc2c1=O [Compound 107, 1-(3-acetylphenyl)-3-(3-(2-methoxyethyl)-2-methyl-4-oxo-3,4-dihydroquinazolin-6-yl)urea] | – | – | – | – | effective in reducing the ATGL ubiquitination by COP1; also recorded: capability of subtly reducing ubiquitination of ATGL
COCC(C)n1cnc2ccc(NC(=O)Nc3cccc(C(C)=O)c3)cc2c1=O (stereo not shown) [Compound 179, 1-(3-acetylphenyl)-3-(3-(1-methoxypropan-2-yl)-4-oxo-3,4-dihydroquinazolin-6-yl)urea] | 1.69 | ideal lipophilicity | – | – | –
COCCn1cnc2ccc(NC(=O)Nc3cccc(C(C)=O)c3)cc2c1=O [Compound 9, 1-(3-acetylphenyl)-3-(3-(2-methoxyethyl)-4-oxo-3,4-dihydroquinazolin-6-yl)urea] | – | – | lower clearance | 21.26 | effective in reducing the ATGL ubiquitination by COP1; also recorded: subtle reduction in the ubiquitination smear

Continued, in another order:

logD [1] | Lipophilicity class from Log D [1] | Clearance class from % QH [2] | % QH (Well stirred model) [2] [%] | Structure (SMILES) | ATGL ubiquitination in HepG2 cells (ATGL)
0.19 | hydrophilic | lower clearance | 24.5 | COCCn1c(-c2ccncc2)nc2ccc(NC(=O)Nc3cccc(C(C)=O)c3)cc2c1=O [Compound 219, 1-(3-acetylphenyl)-3-(3-(2-methoxyethyl)-4-oxo-2-(pyridin-4-yl)-3,4-dihydroquinazolin-6-yl)urea] | no such effects; also recorded: no subtle reduction in the ubiquitination smear
1.6 | ideal lipophilicity | higher clearance | 83.5 | COCCn1c(CN2CCCCC2)nc2ccc(NC(=O)Nc3cccc(C(C)=O)c3)cc2c1=O [Compound 238, 1-(3-acetylphenyl)-3-(3-(2-methoxyethyl)-4-oxo-2-(piperidin-1-ylmethyl)-3,4-dihydroquinazolin-6-yl)urea] | decrease ATGL ubiquitination by COP1; also recorded: decreased
0.42 | hydrophilic | lower clearance | 15.5 | COCCn1c(-c2cccnc2)nc2ccc(NC(=O)Nc3cccc(C(C)=O)c3)cc2c1=O [Compound 215, 1-(3-acetylphenyl)-3-(3-(2-methoxyethyl)-4-oxo-2-(pyridin-3-yl)-3,4-dihydroquinazolin-6-yl)urea] | no such effects; also recorded: no subtle reduction in the ubiquitination smear
